Measurements taken from US5654309A, “Pyridopyrimidine derivatives, their production and use” (Takeda Chemical Industries, Ltd., priority 1992, dated 1997).

What was measured:
[1] = target: T1, Endothelin-A Receptor (porcine) (Sus scrofa, UniProt Q29010); experiment: Endothelin Receptor-Assay, [125I]endothelin-1 binding, porcine cardiac ventricular muscle membrane; details: 25° C., 60 minutes, concentration causing PMB=50%
T1 construct: a fraction of porcine cardiac ventricular muscle membrane; from tissue; host or cells: porcine cardiac ventricular muscle membrane
T1 sequence (Q29010 21-427): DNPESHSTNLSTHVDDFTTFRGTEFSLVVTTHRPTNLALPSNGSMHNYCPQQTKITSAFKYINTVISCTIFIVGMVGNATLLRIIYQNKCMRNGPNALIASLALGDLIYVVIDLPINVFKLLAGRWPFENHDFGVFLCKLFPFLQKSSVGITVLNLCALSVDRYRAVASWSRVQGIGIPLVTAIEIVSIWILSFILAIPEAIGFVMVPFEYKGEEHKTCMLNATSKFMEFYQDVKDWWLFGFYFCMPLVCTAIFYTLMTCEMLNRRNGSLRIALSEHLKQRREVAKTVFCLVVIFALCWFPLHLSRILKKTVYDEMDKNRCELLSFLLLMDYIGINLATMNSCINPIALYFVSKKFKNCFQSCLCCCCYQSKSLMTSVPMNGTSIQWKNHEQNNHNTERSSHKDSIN
Procedure: Endothelin-A receptors was prepared by diluting a fraction of porcine cardiac ventricular muscle membrane with an assay buffer [20 mM Tris-HCl, 2 mM EGTA (ethyleneglycol bis(2-aminoethylether) tetra acetic acid), 5 mM magnesium acetate, 0.1% BSA (bovine serum albumin), 0.03% NAN3, 0.5 mM PMSF (phenyl methyl sulfonyl fluoride), 20 μg/ml leupeptin, 4 μg/ml E-64 (products of the Peptide Institute), 1 μg/ml pepstatin, (pH 7.2)] to make a solution of the fraction of porcine cardiac ventricular membrane (12 μg/ml).
(§1) To 100 μl of each portion was added 5 nM [^125 I] endothelin-1 (2 μl). A dimethylsulfoxide solution (3 μl) of the sample was added thereto and incubated at 25° C. for 60 minutes.
And, to determine the maximum binding amount (B0) and non-specific binding amount (NSB), lots to which a dimethyl sulfoxide solution (3 μl) or a dimethyl sulfoxide solution (3 μl) containing endothelin-1 (10^-5 M) was added were also incubated. […]
(§2) Radioactivity on the filter was counted in a gamma-counter to determine the Percent Maximum Binding (PMB) in accordance with the following calculation formula.
The concentration causing PMB=50% was determined as IC50 value. […]

[2] = target: T2, Endothelin-B Receptor (bovine) (Bos taurus, UniProt P28088); experiment: Endothelin Receptor-Assay, [125I]endothelin-1 binding, bovine cerebral membrane; details: 25° C., 60 minutes, concentration causing PMB=50%
T2 construct: a fraction of bovine cerebral membrane; from tissue; host or cells: bovine cerebral membrane
T2 sequence (P28088 27-441): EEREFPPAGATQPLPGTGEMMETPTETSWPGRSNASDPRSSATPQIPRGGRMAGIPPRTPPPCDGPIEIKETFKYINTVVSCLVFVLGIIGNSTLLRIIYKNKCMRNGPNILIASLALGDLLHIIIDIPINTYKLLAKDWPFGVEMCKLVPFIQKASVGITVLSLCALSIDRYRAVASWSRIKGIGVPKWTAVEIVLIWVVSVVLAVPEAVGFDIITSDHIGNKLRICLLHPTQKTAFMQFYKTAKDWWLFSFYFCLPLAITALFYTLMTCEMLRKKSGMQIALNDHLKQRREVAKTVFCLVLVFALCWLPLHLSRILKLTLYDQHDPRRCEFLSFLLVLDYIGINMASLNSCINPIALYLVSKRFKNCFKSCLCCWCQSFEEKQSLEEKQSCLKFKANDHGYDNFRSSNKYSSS
Procedure: Endothelin-B receptor was prepared by diluting a fraction of bovine cerebral membrane with the same assay buffer as mentioned above to make a solution having a concentration of 180 μg/ml.
as §1
And, to determine the maximum binding amount (B0) and non-specific binding amount (NSB), lots to which a dimethyl sulfoxide solution (3 μl) or a dimethyl sulfoxide solution (3 μl) containing endothelin-1 (10^-5 M) was added were also incubated.
(§3) These lots were supplemented with 0.05% CHAPS (3-[(3-[…])dimethylammonio]-1-propanesulfonate)-assay buffer (1.5 ml), subjected to filtration through a glass fiber filter GF/F (trade name; product of Wattman Ltd. (England)), and then washed with the same buffer (1.5 ml).
as §2
The concentration causing PMB=50% was determined as IC50 value.
PMB=[(B-NSB)/(B0 -NSB)]×100

[3] = target: T3, Endothelin-A Receptor (human) (Homo sapiens, UniProt P25101); experiment: Endothelin Receptor-Assay, [125I]endothelin-1 binding, insect cell (Sf9) membrane having human endothelin-A receptors; details: human ETA, 25° C., 60 minutes, concentration causing PMB=50%
T3 construct: expressed in transfected cells; host or cells: Sf9 insect cells
T3 sequence (P25101 21-427): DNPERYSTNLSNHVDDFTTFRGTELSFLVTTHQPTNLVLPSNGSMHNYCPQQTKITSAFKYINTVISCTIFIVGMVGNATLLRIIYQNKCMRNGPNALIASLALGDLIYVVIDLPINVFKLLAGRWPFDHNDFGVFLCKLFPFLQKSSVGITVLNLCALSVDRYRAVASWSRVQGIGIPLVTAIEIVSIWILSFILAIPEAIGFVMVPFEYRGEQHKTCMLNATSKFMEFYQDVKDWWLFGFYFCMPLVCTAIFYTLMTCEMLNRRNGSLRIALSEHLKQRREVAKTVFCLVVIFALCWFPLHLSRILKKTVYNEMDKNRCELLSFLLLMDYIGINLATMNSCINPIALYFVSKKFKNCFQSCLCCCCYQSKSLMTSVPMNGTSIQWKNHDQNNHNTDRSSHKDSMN
Procedure: (§4) Endothelin (ET) receptors were prepared by diluting fractions of insect cell (Sf9) membrane having human endothelin-A (ETA) receptors or human endothelin-B (ETB) receptors appeared, with an assay buffer [20 mM Tris-HCl, 2 mM EGTA (ethyleneglycol bis(2-aminoethylether) tetra acetic acid), 5 mM magnesium acetate, 0.1% BSA (bovine serum albumin), 0.03% NAN3, 0.5 mM PMS F (phenyl methyl sulfonyl fluoride), 20 μg/ml leupeptin, 4 μg/ml E-64 (products of the Peptide Institute), 1 μg/ml pepstatin, (pH 7.2)] respectively in a concentration of 1.4 μg/ml in the former case and 0.7 μg/ml in the latter case.
as §1
(§5) And, to determine the maximum binding amount (B0) and non-specific binding amount (NSB), lots to which a dimethyl sulfoxide solution (3 μl) or a dimethyl sulfoxide solution (3 μl) containing endothelin-1 (10^-5 M) had been added, were also incubated.
as §3
(§6) Radioactivity on the filter was counted in a gamma-counter to determine the Percent Maximum Binding (PMB) in accordance with the aforesaid calculation formula. The concentration causing PMB=50% was determined as IC50 value.

[4] = target: T4, Endothelin-B Receptor (human) (Homo sapiens, UniProt P24530); experiment: Endothelin Receptor-Assay, [125I]endothelin-1 binding, insect cell (Sf9) membrane having human endothelin-B receptors; details: human ETB, 25° C., 60 minutes, concentration causing PMB=50%
T4 construct: expressed in transfected cells; host or cells: Sf9 insect cells
T4 sequence (P24530 27-442): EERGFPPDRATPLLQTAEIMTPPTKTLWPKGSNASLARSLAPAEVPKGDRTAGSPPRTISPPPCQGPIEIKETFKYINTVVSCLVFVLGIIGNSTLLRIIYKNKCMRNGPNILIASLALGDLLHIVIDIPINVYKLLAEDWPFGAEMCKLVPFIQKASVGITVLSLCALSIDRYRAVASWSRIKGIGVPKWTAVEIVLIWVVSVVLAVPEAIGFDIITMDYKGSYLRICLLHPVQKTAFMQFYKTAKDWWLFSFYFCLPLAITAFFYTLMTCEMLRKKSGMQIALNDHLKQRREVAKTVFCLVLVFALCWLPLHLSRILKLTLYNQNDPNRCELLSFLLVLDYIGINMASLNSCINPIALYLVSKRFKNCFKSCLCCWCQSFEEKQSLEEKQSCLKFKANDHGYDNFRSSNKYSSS
Procedure: as §4, §1, §5, §3, §6

Row | Compound | IC50 [1] [µM] | IC50 [2] [µM] | IC50 [3] [nM] | IC50 [4] [µM]
1 | CCOC(=O)c1c(C(C)C)nc2c(c1-c1ccc(C)cc1)c(=O)n(CC(=O)O)c(=O)n2Cc1ccccc1OC [Example 10, 2,4(1H,3H)-dioxo-6-ethoxycarbonyl-7-isopropyl-1-(2-methoxbenzyl)-5-(4-tolyl)pyrido[2,3-d]pyrimidine-3-acetic Acid] | 11 | 64 | 11000 | –
2 | CCOC(=O)c1c(C)nc2c(c1-c1ccc(OC)cc1)c(=O)n(CC(=O)O)c(=O)n2Cc1ccccc1OC [Example 12, 2,4(1H,3H)-dioxo-6-ethoxycarbonyl-7-methyl-1-(2-methoxybenzyl)-5-(4-methoxyphenyl)pyrido[2,3-d]pyrimidine-3-acetic Acid] | 18 | 130 | 22000 | –
3 | COc1ccccc1Cn1c(=O)n(CC(=O)O)c(=O)c2c(-c3ccc4ccccc4n3)c(C(=O)O)c(C(C)C)nc21 [Example 14, 2,4(1H,3H)-dioxo-6-carboxy-7-isopropyl-1-(2-methoxybenzyl)-5-(2-quinolyl)pyrido[2,3-d]pyrimidine-3-acetic Acid] | – | – | 3700 | 67
4 | COc1ccccc1Cn1c(=O)n(CC(=O)OC(C)(C)C)c(=O)c2c(-c3ccc4ccccc4n3)c(C(=O)O)c(C(C)C)nc21 [Example 16, t-Butyl [2,4(1H,3H)-dioxo-6-carboxy-7-isopropyl-1-(2-methoxybenzyl)-5-(2-quinolyl)pyrido[2,3-d]pyrimidine]-3-acetate] | – | – | 1600 | 69
5 | COc1ccccc1Cn1c(=O)n(CC(=O)O)c(=O)c2c(-c3ccc4ccccc4n3)c(C(=O)OCC(C)C)c(C(C)C)nc21 [Example 27, 2,4(1H,3H)-dioxo-6-isobutoxycarbonyl-7-isopropyl-1-(2-methoxybenzyl)-5-(2-quinolyl)pyrido[2,3-d]pyrimidine-3-acetic Acid] | – | – | 4500 | 47
6 | CCOC(=O)c1c(C(C)C)nc2c(c1-c1ccc3ccccc3n1)c(=O)n(CC(=O)O)c(=O)n2Cc1ccccc1OC [Example 28 Compound No. 8] | – | – | 1100 | 76

Compounds with a lower IC50 [3], results first:

Row | IC50 [1] [µM] | IC50 [2] [µM] | IC50 [3] [nM] | IC50 [4] [µM] | Compound
7 | – | – | 890 | 95 | COc1ccc(Cn2c(=O)n(CC(=O)O)c(=O)c3c(-c4ccc5ccccc5n4)c(C(=O)O)c(C(C)C)nc32)c(OC)c1 [Example 15 Compound No. 4]
8 | – | – | 710 | 19 | CCOC(=O)Cn1c(=O)c2c(-c3ccc4ccccc4n3)c(C(=O)O)c(C(C)C)nc2n(Cc2ccccc2OC)c1=O [Example 17 Compound No. 1]
9 | – | – | 150 | 69 | COc1ccccc1Cn1c(=O)n(CC(=O)OC(C)(C)C)c(=O)c2c(-c3cc(=O)c4ccccc4[nH]3)c(C(=O)O)c(C(C)C)nc21 [Example 18, t-Butyl [2,4(1H,3H)-dioxo-6-carboxy-7-isopropyl-1-(2-methoxbenzyl)-5-[2-(4-quinolonyl)]pyrido[2,3-d]pyrimidine]-3-acetate]
10 | – | – | 70 | 65 | CCOC(=O)Cn1c(=O)c2c(-c3cc(=O)c4ccccc4[nH]3)c(C(=O)O)c(C(C)C)nc2n(Cc2ccccc2OC)c1=O [Example 19 Compound No. 2]
11 | – | – | 980 | 23 | CCOC(=O)Cn1c(=O)c2c(-c3cc(=O)c4ccccc4[nH]3)c(C(=O)O)c(C(C)C)nc2n(Cc2ccc(OC)cc2OC)c1=O [Example 19 Compound No. 5]
12 | – | – | 120 | 14 | COc1ccccc1Cn1c(=O)n(CC(=O)O)c(=O)c2c(-c3cc(=O)c4ccccc4[nH]3)c(C(=O)O)c(C(C)C)nc21 [Example 20]
13 | – | – | 56 | 14 | CSc1ccccc1Cn1c(=O)n(CC(=O)O)c(=O)c2c(-c3cc(=O)c4ccccc4[nH]3)c(C(=O)O)c(C(C)C)nc21 [Example 21 Compound No. 9]
14 | – | – | 920 | 4.3 | CCOC(=O)c1c(C(C)C)nc2c(c1-c1cc(=O)c3ccccc3[nH]1)c(=O)n(CC(=O)O)c(=O)n2Cc1ccccc1OC [Example 23, 2,4(1H,3H)-dioxo-6-ethoxycarbonyl-7-isopropyl-1-(2-methoxybenzyl)-5-[2-(4-quinolonyl)]pyrido[2,3-d]pyrimidine-3-acetic Acid]
15 | – | – | 570 | 95 | COc1ccccc1Cn1c(=O)n(CC(=O)O)c(=O)c2c(-c3ccc4ccccc4n3)c(C(=O)OCCC#N)c(C(C)C)nc21 [Example 29, 2,4(1H,3H)-dioxo-6-cyanoethoxycarbonyl-7-isopropyl-1-(2-methoxybenzyl)-5-(2-quinolyl)pyrido[2,3-d]pyrimidine-3-acetic Acid]
16 | – | – | 120 | 88 | CCOC(=O)Cn1c(=O)c2c(-c3cc(=O)c4ccccc4[nH]3)c(C(=O)O)c(C(C)C)nc2n(Cc2ccccc2SC)c1=O [Example 31, Ethyl [2,4(1H,3H)-dioxo-6-carboxy-7-isopropyl-1-(2-methylthiobenzyl)-5-[2-(4-quinolonyl)]pyrido[2,3-d]pyrimidine]-3-acetate]
